Values after ≈ are worked out from the molar mass of the structure shown.
Legend:
[1] = test system: Microsporum canis (TIMM20080 Strain); assay: Test Example 1-7 antimicrobial activity test, minimum inhibitory concentration; type: cell-based; settings: Sabouraud medium, 28° C. for 72 hours
Procedure: (§1) Test Microbial Strains: Trichophyton rubrum (CBS118892 Strain), T. interdegitale (TIMM20065 Strain), Microsporum canis (TIMM20080 Strain), and Arthroderma vanbreuseghemii (TIMM2789)
(§2) Each microbial strain was cultured in a Sabouraud medium containing 500 μg/mL of cycloheximide and 50 μg/mL of chloramphenicol at 28° C. for 8 days, then spores were collected in physiological saline containing Tween80 (polyoxyethylene sorbitan monooleate: manufactured by Kanto Chemical Co., Inc.) (0.05% (v/v)), and this was filtered through a cell strainer (φ40 μm). The spores were recovered from the filtrate by centrifugation (3500 rpm, 5 minutes) and washed twice with physiological saline, and then a spore suspension was prepared (1×10^7 spores/mL). 10 μL of the spore suspension was inoculated into a Sabouraud medium to which compound No. 1 dissolved in DMSO was added to have a predetermined concentration. After culturing at 28° C. for 72 hours, the presence or absence of microbial growth was investigated, and the minimum inhibitory concentration was determined. As a result, the minimum inhibitory concentration of compound No. 1 for each of the four microbial strains was 10 ppm.

[2] = test system: Trichophyton rubrum (CBS118892 Strain); assay: as above; type: cell-based; settings: Sabouraud medium, 28° C. for 72 hours
Procedure: as §1, §2

[3] = test system: Arthroderma vanbreuseghemii (TIMM2789); assay: as above; type: cell-based; settings: Trichophyton mentagrophytes, Sabouraud medium, 28° C. for 72 hours
Procedure: as §1, §2

[4] = test system: Cryptococcus neoformans (TIMM1316 Strain); assay: Test Example 1-3 antimicrobial activity test, colony formation; type: cell-based; settings: at 20 ppm, Sabouraud medium, 37° C. for 48 hours
Procedure: (§3) Test Microbial Strain: Cryptococcus neoformans (TIMM1316 Strain) Test method: The Cryptococcus microbe cultured in an YPD liquid medium at 37° C. for 20 hours was recovered by centrifugation (3000 rpm, 5 minutes), washed twice with physiological saline, and then suspended in physiological saline, and a microbial liquid was prepared in such a way as to provide 2×10^3 cells/mL. 100 μL of the microbial liquid was applied to a Sabouraud medium to which the test compound dissolved in DMSO was added to have a predetermined concentration. After culturing at 37° C. for 48 hours, the presence or absence of colony formation was investigated.

[5] = test system: T. interdegitale (TIMM20065 Strain); assay: Test Example 1-7 antimicrobial activity test, minimum inhibitory concentration; type: cell-based, Trichophyton interdegitale; settings: Trichophyton, Sabouraud medium, 28° C. for 72 hours
Procedure: as §1, §2

[6] = test system: Candida albicans (TIMM1768 Strain); assay: Test Example 1-1 antimicrobial activity test, colony formation; type: cell-based; settings: at 50 ppm, Sabouraud medium, 37° C. for 48 hours
Procedure: as §3, with “Candida albicans (TIMM1768” for “Cryptococcus neoformans (TIMM1316”, “Candida” for “Cryptococcus”

[7] = test system: Candida glabrata (TIMM6054 Strain); assay: Test Example 1-2 antimicrobial activity test, colony formation; type: cell-based; settings: at 200 ppm, YPD medium, 37° C. for 48 hours
Procedure: as §3, with “Candida glabrata (TIMM6054” for “Cryptococcus neoformans (TIMM1316”, “Candida” for “Cryptococcus”, “an YPD” for “a Sabouraud”

[8] = test system: Aspergillus fumigatus (TIMM0063 Strain); assay: Test Example 1-6 antimicrobial activity test, minimum inhibitory concentration; type: cell-based; settings: Sabouraud medium, 28° C. for 48 hours
Procedure: (§4) Test Microbial Strains: Aspergillus fumigatus (TIMM0063 Strain), and A. Niger (TIMM4968 Strain) Test method: The Aspergillus microbe was cultured in a PDA medium at 27° C. for 3 days, then spores were collected in physiological saline containing Tween80 (polyoxyethylene sorbitan monooleate: manufactured by Kanto Chemical Co., Inc.) (0.05% (v/v)), and this was filtered through a cell strainer (+40 μm). The spores were recovered from the filtrate by centrifugation (3500 rpm, 5 minutes) and washed twice with physiological saline, and then a spore suspension was prepared (1×10^7 spores/mL). 10 μL of the spore suspension was inoculated into a Sabouraud medium to which compound No. 1 dissolved in DMSO was added to have a predetermined concentration. After culturing at 28° C. for 48 hours, the presence or absence of microbial growth was investigated, and the minimum inhibitory concentration was determined.

[9] = test system: A. Niger (TIMM4968 Strain); assay: as above; type: cell-based; settings: Aspergillus niger, Sabouraud medium, 28° C. for 48 hours
Procedure: as §4

[10] = test system: Malassezia Nana (CBS95574); assay: Test Example 1-4 antimicrobial activity test, colony formation inhibition rate after 5 minutes contact; type: cell-based; settings: contact 5 minutes at 30° C., culturing 5 days
Procedure: Test Microbial Strain: Malassezia Nana (CBS95574)
(§5) The Malassezia microbe cultured at 32° C. for 20 hours in a Sabouraud liquid medium containing Tween80 (polyoxyethylene sorbitan monooleate: manufactured by Kanto Chemical Co., Inc.) (0.05% (v/v)) was recovered by centrifugation (3000 rpm, 5 minutes), washed twice with physiological saline, and then suspended in 10 mL of physiological saline, the resulting suspension was allowed to stand for 15 minutes, and then the supernatant was recovered. […] 100 μL of the microbial liquid resulting from the resuspension was applied to a Sabouraud medium containing Tween80 (0.05% (v/v)) and subjected to culturing at 30° C. for 5 days, then the number of colonies formed there (number of colonies formed in the inventive plot) and the number of colonies in a solvent to which the test compound was not added (the number of colonies formed in the non-agent treated plot) were measured, and the colony formation inhibition rate (%) was determined according to the following expression.

[11] = test system: Malassezia pachydermatis (TIMM10024); assay: Test Example 1-5 antimicrobial activity test, colony formation inhibition rate after 5 minutes contact; type: cell-based; settings: contact 5 minutes at 30° C., culturing 5 days
Procedure: Test Microbial Strain: Malassezia pachydermatis (TIMM10024)
as §5, with “ml” for “mL”, “in” for “according to”, “same manner as in Test Example 1-4.” for “following expression.”

MIC [1]: 10 µg/mL (≈ 45.9 µM)
MIC [2]: 10 µg/mL (≈ 45.9 µM)
MIC [3]: 10 µg/mL (≈ 45.9 µM)
MIC [5]: 10 µg/mL (≈ 45.9 µM)
MIC [8]: 100 µg/mL (≈ 459 µM)
MIC [9]: 100 µg/mL (≈ 459 µM)
SMILES: Cc1ccc(-c2nc(C#N)[nH]c2Cl)cc1 [Compound No. 1, 5-Chloro-4-(4-methylphenyl)-1H-imidazole-2-carbonitrile]
colony formation [4]: completely suppressed colony formation
colony formation [6]: completely inhibited colony formation
colony formation [7]: completely suppressed colony formation
inhibition at 100 ppm ([10]; at 100 ppm): 98.5%
inhibition at 200 ppm ([10]; at 200 ppm): 99.9%
inhibition at 100 ppm ([11]; at 100 ppm): 98.1%
inhibition at 200 ppm ([11]; at 200 ppm): 100%

From US20260115170A1, “Method of Ameliorating a Symptom or a Disease in a Human Caused by Fungus” (ISHIHARA SANGYO KAISHA, LTD., priority 2020, published 2026)
